Like-named read-outs stand apart in the source and are kept apart here.
How the values were obtained:
[1] = test system: maximal electroshock (MES)-induced seizures; assay: maximal electroshock seizure (MES) test, mice ip; conditions: for ED50: Mus musculus, ip
Description: The structure-activity relationship of functionalized amino acids (1).

[2] = test system: neurologic toxicity; assay: neurologic toxicity (Tox), rat po; format: in vivo; conditions: for TD50: in vivo
[3] = test system: 6 Hz seizure model; assay: 6 Hz seizure model, mice ip
[4] = test system: maximal electroshock (MES)-induced seizures; assay: maximal electroshock seizure (MES) test, rat po; conditions: for PI / MES, ED50: Rat (po); for PI: PI = TD50/ED50; for ED50: Rattus norvegicus, po
[5] = test system: bi-phasic licking response; assay: formalin test (0.5% formalin into hind paw, bi-phasic licking response); format: in vivo, mouse; conditions: dose 16.0 (CH2C≡CH/H), 8.0 (CH3/N3), 20.0 (CH2C≡CH/N3) mg/kg
Procedure: Compounds of the present invention were active in treating pain in a formalin test carried out in accordance with standard techniques, as described in S. Hunskaar et al., J. Neurosci. Methods 14: 69-76 (1985). Briefly, 0.5% formalin is injected into the mouse hind paw to elicit a bi-phasic licking response, where the first acute phase is thought to correspond to the direct stimulation of peripheral fibers and the second (inflammatory) phase is caused by the release of inflammatory mediators.

[6] = test system: neurologic toxicity; assay: neurologic toxicity (Tox), rotorod test, mice ip; conditions: for TD50: mouse, in vivo, ip, Tox, TD50, Mice (ip)
[7] = neurologic toxicity (Tox), rat po; format: in vivo; conditions: in vivo, time in hours in brackets
[8] = neurologic toxicity (Tox), rotorod test, mice ip; conditions: mouse, in vivo, ip, Tox, TD50, Mice (ip); time in hours in second brackets; [x; y] = between doses x and y
[9] = test system: maximal electroshock (MES)-induced seizures; conditions: rat, in vivo, po
[10] = read-out: MES ED50, values of the running text, mice (ip)
[11] = read-out: MES, ED50, Mice (ip), time in hours in second brackets, [x, y] = between doses x and y
[12] = read-out: MES, ED50, Rat (po), time in hours in brackets
[13] = time in hours in second brackets, [x, y] = between doses x and y
[14] = read-out: MES, ED50, mice, intraperitoneally (ip), 95% confidence intervals in parentheses
[15] = read-out: MES, ED50, Mice (ip), time of peak effect in hours in brackets in the cell
[16] = read-out: MES, ED50, Rat (po), time of peak effect in hours in brackets in the cell
[17] = Mice (ip), time in hours in second brackets, [x, y] = between doses x and y
[18] = time in hours in brackets in the cell
[19] = rotorod test, time of peak effect in hours in brackets in the cell

CC(=O)NC(C)C(=O)NCc1ccccc1 (racemic) [(R,S)-4] gave an ED50 ([1]; read-out: MES, ED50) of 77 mg/kg.

For CC(=O)NC(C(=O)NCc1ccccc1)c1ccccc1 (racemic) [(R,S)-6], the ED50 ([1]; read-out: MES ED50) was 32 mg/kg and the ED50 ([1]; read-out: MES, ED50) was 32 mg/kg.

For CCOCC(NC(C)=O)C(=O)NCc1ccccc1 (racemic) [(R,S)-10], the ED50 [1, 10] was 17 mg/kg.

In the case of C=CCOCC(NC(C)=O)C(=O)NCc1ccccc1 (racemic) [(R,S)-11], the ED50 [1, 10] is reported as 30 to 100 mg/kg.

In the case of COC[C@@H](NC(C)=O)C(=O)NCc1ccc(OCc2cccc(F)c2)cc1 [(R)-3, (R)-2-Acetamido-N-(4-(3-fluorobenzyloxy)benzyl)-3-methoxypropanamide], the PI ([1]; Mice (ip), PI = TD50/ED50) is reported as “∼9.3”, the ED50 [1, 11] is reported as 10 to 30 mg/kg and the TD50 ([2]; time in hours in brackets) is reported as over 30 mg/kg. For the same molecule, the “Tox, TD50” value ([2]; time in hours in brackets) was > 500 [0.5] mg/kg, the “6Hz, ED50 (given as fraction)” value ([3]; Mice (ip), […], dose not given) was 2/4 [0.25] and the PI [4] was over 36.

In the case of COC[C@@H](NC(C)=O)C(=O)NCc1ccc(N=[N+]=[N-])cc1 [(R)-5, (R)-N-(4-Azidobenzyl)-2-acetamido-3-methoxypropanamide, reference compound], the TD50 ([2]; time in hours in brackets) is reported as over 250 mg/kg, the “Area Under the Curve, % of Control” value ([5]; Acute phase) is reported as 58.67% and the “Area Under the Curve, Drug Tested” value ([5]; Acute phase) is reported as 131.4. The “Area Under the Curve, % of Control” value ([5]; Inflammatory phase) was 106.22%, the “Area Under the Curve, Drug Tested” value ([5]; Inflammatory phase) was 694.5 and the PI [4] was over 64. For the same molecule, the ED50 [4, 12] was 3.9 mg/kg and the TD50 [6, 13] was 46.2 mg/kg.

In the case of COCC#Cc1ccc(CNC(=O)[C@@H](COC)NC(C)=O)cc1 [(R)-6, (R)-2-Acetamido-3-methoxy-N-(4-(3-methoxyprop-1-ynyl)benzyl)propanamide, reference compound], the PI ([1]; Mice (ip), PI = TD50/ED50) is reported as “∼2.8”, the ED50 [1, 11] is reported as 3 to 10 mg/kg and the ED50 [1, 14] is reported as 26 mg/kg. For the same molecule, the TD50 ([2]; time in hours in brackets) was under 30 mg/kg, the PI [4] was over 30 and the “Tox (death)” value ([6]; Mice (ip), observation printed in the Tox, TD50 column) was “Death at 100”. It also gave a TD50 [6, 13] of 10 to 30 mg/kg.

For C#CCOC[C@@H](NC(C)=O)C(=O)NCc1ccccc1 [(R)-7, (R)-N-Benzyl-2-acetamido-3-(prop-2-ynyloxy)propanamide], the “Area Under the Curve, % of Control” value ([5]; Acute phase) was 48.42%, the “Area Under the Curve, Drug Tested” value ([5]; Acute phase) was 142.9 and the “Area Under the Curve, % of Control” value ([5]; Inflammatory phase) was 54.99%. For the same molecule, the “Area Under the Curve, Drug Tested” value ([5]; Inflammatory phase) was 468.3.

C#CCOC[C@@H](NC(C)=O)C(=O)NCc1ccccc1 [(R)-7] gave an ED50 [1, 11] of 10 to 30 mg/kg, an ED50 [1, 15] of 16 mg/kg and a TD50 [7] of over 500 mg/kg. It also gave an ED50 [4, 12] of 16 mg/kg, an ED50 [4, 16] of 8 mg/kg and a TD50 [8] of 30 to 100 mg/kg.

In the case of C#CCOC[C@@H](NC(C)=O)C(=O)NCc1ccc(N=[N+]=[N-])cc1 [(R)-8, (R)-N-(4-Azidobenzyl)-2-acetamido-3-(prop-2-ynyloxy)propanamide], the “Area Under the Curve, % of Control” value ([5]; Acute phase) is reported as 58.28%, the “Area Under the Curve, Drug Tested” value ([5]; Acute phase) is reported as 119.9 and the “Area Under the Curve, % of Control” value ([5]; Inflammatory phase) is reported as 78.17%. The “Area Under the Curve, Drug Tested” value ([5]; Inflammatory phase) was 414.3.

In the case of C#CCOC[C@@H](NC(C)=O)C(=O)NCc1ccc(N=[N+]=[N-])cc1 [(R)-8], the ED50 ([1]; read-out: MES, ED50) is reported as 20 mg/kg, the TD50 [7] is reported as over 500 mg/kg and the ED50 [4, 12] is reported as 45 mg/kg. For the same molecule, the ED50 [4, 16] was 12 mg/kg and the TD50 [8] was 100 to 300 mg/kg.

Work on C#CCOC[C@@H](NC(C)=O)C(=O)NCc1ccc(N=C=S)cc1 [(R)-9] yielded a TD50 [7] of over 30 mg/kg, an ED50 [4, 12] of over 30 mg/kg and an ED50 [4, 16] of over 30 mg/kg. For the same molecule, the TD50 [8] was 68 mg/kg.

With COC[C@@H](NC(C)=O)C(=O)NCc1ccc(C(F)(F)F)cc1 [(R)-10] the PI ([1]; Mice (ip), PI = TD50/ED50) was “∼3.1”, the ED50 [1, 11] was 30 to 100 mg/kg and the TD50 [7] was over 30 mg/kg. It also gave an ED50 [4, 12] of under 30 mg/kg and a TD50 [8] of 100 to 300 mg/kg.

With COC[C@@H](NC(C)=O)C(=O)NCc1ccc(COc2cccc(F)c2)cc1 [(R)-11] the PI ([1]; Mice (ip), PI = TD50/ED50) was “∼2.8”, the ED50 [1, 11] was 3 to 10 mg/kg and the “Tox, TD50” value ([2]; time in hours in brackets) was > 30 [0.25 to 4.0] mg/kg. The ED50 [4, 12] was under 30 mg/kg and the TD50 [8] was 10 to 30 mg/kg.

Molecule COC[C@H](NC(C)=O)C(=O)NCc1ccc(OCc2cccc(F)c2)cc1 [(S)-3, (S)-2-Acetamido-N-(4-(3-fluorobenzyloxy)benzyl)-3-methoxypropanamide] has an ED50 [1, 11] of over 300 mg/kg and a TD50 [6, 13] of over 300 mg/kg.

Molecule CC(=O)N[C@@H](C)C(=O)NCc1ccccc1 [(S)-4] has an ED50 ([1]; read-out: MES, ED50) of 550 mg/kg.

For COC[C@H](NC(C)=O)C(=O)NCc1ccc(N=[N+]=[N-])cc1 [(S)-5, (S)-N-(4-Azidobenzyl)-2-acetamido-3-methoxypropanamide, reference compound], the ED50 [1, 11] was 100 to 300 mg/kg, the ED50 [1, 14] was over 25 mg/kg and the TD50 ([2]; time in hours in brackets) was over 30 mg/kg. The ED50 ([3]; Mus musculus, ip, read-out: 6Hz, ED50) was about 100 mg/kg, the ED50 [4, 12] was over 30 mg/kg and the “Tox, TD50” value [6, 17] was over 300 mg/kg.

For CC(=O)N[C@H](C(=O)NCc1ccccc1)c1ccccc1 [(S)-6], the ED50 ([1]; read-out: MES, ED50) was over 300 mg/kg.

With C#CCOC[C@H](NC(C)=O)C(=O)NCc1ccccc1 [(S)-7, (S)-N-Benzyl-2-acetamido-3-(prop-2-ynyloxy)propanamide] the ED50 [1, 15] was over 300 mg/kg, the TD50 [2, 18] was over 30 mg/kg and the ED50 [4, 16] was over 30 mg/kg. The TD50 [6, 19] was over 300 mg/kg.

In the case of C#CCOC[C@H](NC(C)=O)C(=O)NCc1ccc(N=[N+]=[N-])cc1 [(S)-8, (S)-N-(4-Azidobenzyl)-2-acetamido-3-(prop-2-ynyloxy)propanamide], the ED50 [1, 15] is reported as 163 mg/kg, the TD50 [2, 18] is reported as over 30 mg/kg and the ED50 [4, 16] is reported as over 30 mg/kg. It also gave a TD50 [6, 19] of over 300 mg/kg.

Molecule C#CCOC[C@H](NC(C)=O)C(=O)NCc1ccc(N=C=S)cc1 [(S)-9, (S)-N-(4-Isothiocyanatobenzyl)-2-acetamido-3-(prop-2-ynyloxy)propanamide] has an ED50 ([1]; read-out: MES, ED50) of over 300 mg/kg and a TD50 [6, 19] of over 300 mg/kg.

In the case of CCC1(c2ccccc2)C(=O)NC(=O)NC1=O [Phenobarbital, reference compound], the ED50 [1, 11] is reported as 22 mg/kg, the ED50 [1, 15] is reported as 22 mg/kg and the “Tox, TD50” value ([2]; time in hours in brackets) is reported as 61 [0.5] mg/kg. The “Tox, TD50” value [2, 18] was 61 [0.5] mg/kg, the ED50 [4, 12] was 9.1 mg/kg and the ED50 [4, 16] was 9 mg/kg.

With O=C1NC(=O)C(c2ccccc2)(c2ccccc2)N1 [phenytoin, reference compound] the TD50 [2, 18] was over 3000 mg/kg, the “MES, ED50” value ([4]; time in hours in brackets) was 30 [4] mg/kg and the ED50 ([4]; read-out: MES, ED50) was 30 mg/kg.

In the case of CCCC(CCC)C(=O)O [valproate], the PI ([1]; Mice (ip), PI = TD50/ED50) is reported as 1.6, the PI ([1]; Mice (ip), protective index (TD50/ED50)) is reported as 1.6 and the “MES, ED50” value [1, 17] is reported as 270 [0.25] mg/kg. The ED50 ([1]; read-out: MES, ED50) was 270 mg/kg, the PI [9] was 0.6 and the “MES, ED50” value ([4]; time in hours in brackets) was 490 [0.5] mg/kg. It also gave an ED50 ([4]; read-out: MES, ED50) of 490 mg/kg.

Source: patent EP2262764B1, “NOVEL N-BENZYLAMIDE SUBSTITUTED DERIVATIVES OF 2-(ACYLAMIDO)ACETIC ACID AND 2-(ACYLAMIDO)PROPIONIC ACIDS: POTENT NEUROLOGICAL AGENTS” (The University of North Carolina At Chapel Hill, priority 2008, dated 2009)
